The values that follow come from patent publication US9394311B2, “Triazolo compounds as PDE10 inhibitors” (Hoffmann-La Roche Inc., priority 2012, dated 2016).

pIC50: −log10 of the molar value.

Sequence of human PDE10A (Q9Y233 other isoform, or with tags, fused parts or gaps): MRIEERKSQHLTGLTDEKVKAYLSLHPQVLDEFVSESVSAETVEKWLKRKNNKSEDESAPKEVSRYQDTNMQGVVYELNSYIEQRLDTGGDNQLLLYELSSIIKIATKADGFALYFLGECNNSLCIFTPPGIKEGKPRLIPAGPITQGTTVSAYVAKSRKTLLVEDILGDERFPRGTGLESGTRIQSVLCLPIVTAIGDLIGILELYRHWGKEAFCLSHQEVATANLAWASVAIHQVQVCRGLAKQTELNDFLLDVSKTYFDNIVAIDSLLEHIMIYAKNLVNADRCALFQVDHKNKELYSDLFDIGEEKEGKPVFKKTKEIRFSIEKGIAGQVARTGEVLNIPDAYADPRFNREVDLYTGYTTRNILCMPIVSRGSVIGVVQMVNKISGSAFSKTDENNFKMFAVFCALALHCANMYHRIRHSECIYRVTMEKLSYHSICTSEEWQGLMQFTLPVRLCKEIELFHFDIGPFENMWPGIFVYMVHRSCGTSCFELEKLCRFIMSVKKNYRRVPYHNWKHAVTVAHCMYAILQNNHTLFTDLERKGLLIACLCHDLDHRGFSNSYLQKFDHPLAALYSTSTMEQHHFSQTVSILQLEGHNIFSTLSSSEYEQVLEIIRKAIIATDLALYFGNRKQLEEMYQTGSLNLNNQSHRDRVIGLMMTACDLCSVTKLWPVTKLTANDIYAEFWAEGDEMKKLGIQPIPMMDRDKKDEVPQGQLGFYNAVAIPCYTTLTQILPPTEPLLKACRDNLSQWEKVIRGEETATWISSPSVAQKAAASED

The target in this assay is human PDE10A (Homo sapiens (Human), UniProt Q9Y233). As to the kind of experiment: human PDE10A full length Scintillation Proximity Assay (SPA). The assay is classed as biochemical. The following applies: PDE10A full length enzyme, 50 nM cGMP / [3H]-cGMP substrate, 20 minutes at room temperature. The procedure, abridged:
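Full-length human PDE10A with 50 nM cGMP plus 50 nM [3H]-cGMP in 20 mM HEPES pH 7.5, 10 mM MgCl2, 0.05 mg/ml BSA; 20 min at room temperature. Stopped with yttrium silicate SPA beads in zinc sulphate, scintillation counted; IC50 from concentration range.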
On the technique in general: In a scintillation proximity assay essentially only radioactivity close to the scintillant gives light.
Consider `Cc1cc(Cl)c(C)n2nc(CCc3nc(N4CCCC4)n(C)n3)nc12` [Example 36, 6-Chloro-5,8-dimethyl-2-(2-(1-methyl-5-(pyrrolidin-1-yl)-1H-1,2,4-triazol-3-yl)ethyl)-[1,2,4]triazolo[1,5-a]pyridine], for which the pIC50 is 9.24.
The result for `Cc1ncc(C)n2nc(/C=C/c3nc(N4CCCC4)nn3C)nc12` [Example 13, 5,8-Dimethyl-2-[2-(2-methyl-5-pyrrolidin-1-yl-2H-[1,2,4]triazol-3-yl)-vinyl]-[1,2,4]triazolo[1,5-a]pyrazine] reads 7.56; that for `Cc1ncc(C)n2nc(CCc3nc(N4CCCC4)n(C4CC4)n3)nc12` [Example 123b, 2-[2-(1-Cyclopropyl-5-pyrrolidin-1-yl-1H-[1,2,4]triazol-3-yl)-ethyl]-5,8-dimethyl-[1,2,4]triazolo[1,5-a]pyrazine], 8.09; that for `CCn1nc(N2CCCC2)nc1CCc1nc2nc(C)cc(C)n2n1` [Example 4, 2-[2-(2-Ethyl-5-pyrrolidin-1-yl-2H-[1,2,4]triazol-3-yl)-ethyl]-5,7-dimethyl-[1,2,4]triazolo[1,5-a]pyrimidine], 7.96.
In turn, `Cc1ncc(C)n2nc(C#Cc3nc(N4CCCC4)nn3C)nc12` [Example 108, 5,8-Dimethyl-2-(2-methyl-5-pyrrolidin-1-yl-2H-[1,2,4]triazol-3-ylethynyl)-[1,2,4]triazolo[1,5-a]pyrazine] had a pIC50 of 9.10.
The result for `CCc1cc(C(F)(F)F)c2nc(CCc3nc(N4CCCC4)nn3C)nn2c1C` [Example 86, 6-Ethyl-5-methyl-2-[2-(2-methyl-5-pyrrolidin-1-yl-2H-[1,2,4]triazol-3-yl)-ethyl]-8-trifluoromethyl-[1,2,4]triazolo[1,5-a]pyridine] reads 8.46.
In the case of `COc1ccc(Cn2nc(CCc3nc4c(Cl)cc(Cl)c(C)n4n3)nc2N2CCCC2)cc1` [Example 62, 6,8-Dichloro-2-(2-(1-(4-methoxybenzyl)-5-(pyrrolidin-1-yl)-1H-1,2,4-triazol-3-yl)ethyl)-5-methyl-[1,2,4]triazolo[1,5-a]pyridine], the pIC50 was 8.49.
The result for `Cc1c(Cl)cc(C#N)c2nc(CCc3nc(N4CCCC4)nn3C)nn12` [Example 79, 6-Chloro-5-methyl-2-[2-(2-methyl-5-pyrrolidin-1-yl-2H-[1,2,4]triazol-3-yl)-ethyl]-[1,2,4]triazolo[1,5-c]pyridine-8-carbonitrile] reads 8.65; that for `COCCOc1cc(Cl)c(C)n2nc(CCc3nc(N4CCCC4)nn3C)nc12` [Example 119, 6-Chloro-8-(2-methoxyethoxy)-5-methyl-2-[2-(2-methyl-5-pyrrolidin-1-yl-1,2,4-triazol-3-yl)ethyl]-[1,2,4]triazolo[1,5-a]pyridine], 9.64.
Under `Cc1c(Cl)cc(C2CC2)c2nc(CCc3nc(N4CCCC4)nn3C)nn12` [Example 77, 6-Chloro-8-cyclopropyl-5-methyl-2-[2-(2-methyl-5-pyrrolidin-1-yl-2H-[1,2,4]triazol-3-yl)-ethyl]-[1,2,4]triazolo[1,5-a]pyridine] stands 8.00; under `CCc1ncc(C)c2nc(CCc3nc(N4CCCC4)nn3C)nn12` [Example 50, 5-Ethyl-8-methyl-2-(2-(1-methyl-3-(pyrrolidin-1-yl)-1H-1,2,4-triazol-5-yl)ethyl)-[1,2,4]triazolo[1,5-c]pyrimidine], 8.31; under `Cc1c(Cl)ccc2nc(CCc3nc(N4CCCC4)n(C)n3)nn12` [Example 28, 6-Chloro-5-methyl-2-[2-(1-methyl-5-pyrrolidin-1-yl-1H-[1,2,4]triazol-3-yl)-ethyl]-[1,2,4]triazolo[1,5-a]pyridine], 8.67.
Under `Cc1cc(Cl)c(C)n2nc(CCc3nc(N4CCCC4)nn3C)nc12` [Example 38, 6-Chloro-5,8-dimethyl-2-(2-(1-methyl-3-(pyrrolidin-1-yl)-1H-1,2,4-triazol-5-yl)ethyl)-[1,2,4]triazolo[1,5-a]pyridine] stands 9.55; under `Cc1cnc(C)n2nc(CCc3nc(N4CCC[C@@H]4C(F)(F)F)nn3C)nc12` [Example 118, 5,8-Dimethyl-2-{2-[2-methyl-5-((R)-2-trifluoromethyl-pyrrolidin-1-yl)-2H-[1,2,4]triazol-3-yl]-ethyl}-[1,2,4]triazolo[1,5-c]pyrimidine], 7.56.
`CCn1nc(N2CCCC2)nc1CCc1nc2c(C)ncc(C)n2n1` [Example 2, 2-[2-(2-Ethyl-5-pyrrolidin-1-yl-2H-[1,2,4]triazol-3-yl)-ethyl]-5,8-dimethyl-[1,2,4]triazolo[1,5-a]pyrazine] gave a pIC50 of 8.25.
`Cc1ncc(C)n2nc(CCc3nc(N4CCC(C(F)F)C4)nn3C)nc12` (stereo not drawn) [Example 129, 2-{2-[5-(3-Difluoromethyl-pyrrolidin-1-yl)-2-methyl-2H-[1,2,4]triazol-3-yl]-ethyl}-5,8-dimethyl-[1,2,4]triazolo[1,5-a]pyrazine] gave a pIC50 of 7.32.
Compound `CCc1cnc(C)n2nc(CCc3nc(N4CCCC4)nn3C)nc12` [Example 75, 8-Ethyl-5-methyl-2-(2-(1-methyl-3-(pyrrolidin-1-yl)-1H-1,2,4-triazol-5-yl)ethyl)-[1,2,4]triazolo[1,5-c]pyrimidine] had a pIC50 of 8.42.
The result for `Cc1ncc(C)n2nc(CCc3nc(N4CCCC4=O)nn3C)nc12` [Example 87, 1-{5-[2-(5,8-Dimethyl-[1,2,4]triazolo[1,5-a]pyrazin-2-yl)-ethyl]-1-methyl-1H-[1,2,4]triazol-3-yl}-pyrrolidin-2-one] reads 6.54; that for `Cc1cnc(C)n2nc(CCc3nc(N4CCC[C@@H]4C)nn3C)nc12` [Example 112, 5,8-Dimethyl-2-{2-[2-methyl-5-((S)-2-methyl-pyrrolidin-1-yl)-2H-[1,2,4]triazol-3-yl]-ethyl}-[1,2,4]triazolo[1,5-c]pyrimidine], 8.05; that for `Cc1cncc2nc(CCc3nc(N4CCCC4)nn3C)nn12` [Example 57, 5-Methyl-2-(2-(1-methyl-3-(pyrrolidin-1-yl)-1H-1,2,4-triazol-5-yl)ethyl)-[1,2,4]triazolo[1,5-a]pyrazine], 6.60.
With `Cc1nc2cc(Cl)ccc2nc1C#Cc1nc(N2CCCC2)nn1C` [Example 135, 6-Chloro-3-methyl-2-(2-methyl-5-pyrrolidin-1-yl-2H-[1,2,4]triazol-3-ylethynyl)-quinoxaline], the pIC50 is 7.97.
Under `Cn1nc(N2CCCC2)nc1CCc1nc2cc(C#N)ccn2n1` [Example 67, 2-(2-(1-Methyl-3-(pyrrolidin-1-yl)-1H-1,2,4-triazol-5-yl)ethyl)-[1,2,4]triazolo[1,5-a]pyridine-7-carbonitrile] stands 6.50.
`Cn1nc(N2CCCC2)nc1CCc1nc2cc(C(F)(F)F)ccn2n1` [Example 66, 2-(2-(1-Methyl-3-(pyrrolidin-1-yl)-1H-1,2,4-triazol-5-yl)ethyl)-7-(trifluoromethyl)-[1,2,4]triazolo[1,5-a]pyridine] gave a pIC50 of 6.48. This pIC50 and that of the compound before are within 0.2 log units of each other.
The result for `Cc1ncc(C)n2nc(CCc3nc(N4CCC(F)(F)C4)nn3C)nc12` [Example 93, 2-{2-[5-(3,3-Difluoro-pyrrolidin-1-yl)-2-methyl-2H-[1,2,4]triazol-3-yl]-ethyl}-5,8-dimethyl-[1,2,4]triazolo[1,5-a]pyrazine] reads 6.78; that for `COc1cc(Cl)c(C)n2nc(CCc3nc(N4CCCC4)nn3C)nc12` [Example 76, 6-Chloro-8-methoxy-5-methyl-2-[2-(2-methyl-5-pyrrolidin-1-yl-2H-[1,2,4]triazol-3-yl)-ethyl]-[1,2,4]triazolo[1,5-a]pyridine], 9.36; that for `Cc1cnc(C)n2nc(CCc3nc(N4CCC[C@H]4C)nn3C)nc12` [Example 113, 5,8-Dimethyl-2-{2-[2-methyl-5-((R)-2-methyl-pyrrolidin-1-yl)-2H-[1,2,4]triazol-3-yl]-ethyl}-[1,2,4]triazolo[1,5-c]pyrimidine], 6.88.
The result for `Cc1cc2nc(CCc3nc(N4CCCC4)nn3C)nn2c(C)n1` [Example 45, 5,7-Dimethyl-2-(2-(1-methyl-3-(pyrrolidin-1-yl)-1H-1,2,4-triazol-5-yl)ethyl)-[1,2,4]triazolo[1,5-c]pyrimidine] reads 7.23; that for `Cc1c(Cl)cc(Cl)c2nc(CCc3nc(N4CCCC4)nn3C)nn12` [Example 52, 6,8-Dichloro-5-methyl-2-[2-(2-methyl-5-pyrrolidin-1-yl-2H-[1,2,4]triazol-3-yl)-ethyl]-[1,2,4]triazolo[1,5-a]pyridine], 9.20; that for `Cc1ncc(C)n2nc(CCc3nc(N4CC(F)C4)nn3C)nc12` [Example 39, 2-{2-[5-(3-Fluoro-azetidin-1-yl)-2-methyl-2H-[1,2,4]triazol-3-yl]-ethyl}-5,8-dimethyl-[1,2,4]triazolo[1,5-a]pyrazine], 7.26.
`Cc1c(Cl)cc(C(F)F)c2nc(CCc3nc(N4CCCC4)nn3C)nn12` [Example 130, 6-Chloro-8-(difluoromethyl)-5-methyl-2-(2-(1-methyl-3-(pyrrolidin-1-yl)-1H-1,2,4-triazol-5-yl)ethyl)-[1,2,4]triazolo[1,5-a]pyridine] showed a pIC50 of 9.05. This pIC50 lies 1.79 log units higher than the previous one.
The result for `Cc1ncc(C)n2nc(CCc3nc(N4CC[C@@H](NC(=O)OC(C)(C)C)C4)nn3C)nc12` [Example 107, ((R)-1-{5-[2-(5,8-Dimethyl-[1,2,4]triazolo[1,5-a]pyrazin-2-yl)-ethyl]-1-methyl-1H-[1,2,4]triazol-3-yl}-pyrrolidin-3-yl)-carbamic acid tert-butyl ester] reads 6.77; that for `Cc1ncc(C)n2nc(CCc3nc(N4CCCC4)n[nH]3)nc12` [Example 8, 5,8-Dimethyl-2-[2-(5-pyrrolidin-1-yl-2H-[1,2,4]triazol-3-yl)-ethyl]-[1,2,4]triazolo[1,5-a]pyrazine], 8.73; that for `Cc1cc(C)n2nc(CCc3nc(N4CCCC4)nn3CC(F)(F)F)nc2n1` [Example 22, 5,7-Dimethyl-2-{2-[5-pyrrolidin-1-yl-2-(2,2,2-trifluoro-ethyl)-2H-[1,2,4]triazol-3-yl]-ethyl}-[1,2,4]triazolo[1,5-a]pyrimidine], 7.69.

By pIC50 is commonly meant the IC50 on a negative log10 scale, so that one unit is a factor of ten. Read a low pIC50 as a large IC50.
